# Experimental data published in patent US20050009840A1 (SUGEN, INC., priority 2003, published 2005).
# Several values for one entry are separate records, joined by “and”; a condition that tells them apart may be missing. Equal entries are not always repeated. Where two headings read alike, the source gives them in different places.
# Molecular target: T1, Met kinase domain (GST fusion protein) (Homo sapiens, UniProt P08581)
# T1 construct: Purified GST fusion protein containing the Met kinase domain
# T1 sequence (P08581 1078-1345 limits assumed): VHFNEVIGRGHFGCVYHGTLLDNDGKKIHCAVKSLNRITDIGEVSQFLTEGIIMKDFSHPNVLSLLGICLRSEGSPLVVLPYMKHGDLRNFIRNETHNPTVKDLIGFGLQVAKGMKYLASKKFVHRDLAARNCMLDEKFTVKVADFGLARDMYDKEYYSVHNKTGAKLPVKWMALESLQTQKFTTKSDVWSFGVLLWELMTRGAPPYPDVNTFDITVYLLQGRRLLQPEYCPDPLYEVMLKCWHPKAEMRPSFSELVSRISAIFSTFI
# Assay: Met transphosphorylation assay (ELISA, poly(glu-tyr) substrate);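 note: Cell-free ELISA with plate-bound poly(Glu:Tyr 4:1) phosphorylated by GST-fused Met kinase domain plus ATP and Mn2+, phosphotyrosine detected by anti-phosphotyrosine antibody with HRP and ABTS read-out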
# Type: biochemical
# Conditions: for IC50: read-out: Met IC50
# [1] = plain numbers in column Met IC50 (μM) of Table 2
Structure (SMILES),IC50,also measured
"CCCOc1cnc(N)c(OC(C)c2c(F)ccc(F)c2Cl)c1 (stereo not drawn) [Example I-533, 3-[1-(2-Chloro-3,6-difluoro-phenyl)-ethoxy]-5-propoxy-pyridin-2-ylamine]",,IC50 [1]: 0.672 µM
"CC(Oc1cc(OCC2CCCCC2)cnc1N)c1c(F)ccc(F)c1Cl (stereo not drawn) [Example I-534, 3-[1-(2-Chloro-3,6-difluoro-phenyl)-ethoxy]-5-cyclohexylmethoxy-pyridin-2-ylamine]",,IC50 [1]: 5.97 µM
"CC(Oc1cc(O)cnc1N)c1c(F)ccc(F)c1Cl (stereo not drawn) [Example I-535, 6-Amino-5-[1-(2-chloro-3,6-difluoro-phenyl)-ethoxy]-pyridin-3-ol]",,IC50 [1]: 0.54 µM
"CC(Oc1cc(OCCC2CCCCC2)cnc1N)c1c(F)ccc(F)c1Cl (stereo not drawn) [Example I-536, 3-[1-(2-Chloro-3,6-diftuoro-phenyl)-ethoxy]-5-(2-cyclohexyl-ethoxy)-pyridin-2-ylamine]",,IC50 [1]: 7.5 µM
"CC(C)COc1cnc(N)c(OC(C)c2c(F)ccc(F)c2Cl)c1 (stereo not drawn) [Example I-537, 3-[1-(2-Chloro-3,6-difluoro-phenyl)-ethoxy]-5-isobutoxy-pyridin-2-ylamine]",,IC50 [1]: 1.2 µM
"CC(Oc1cc(OCCc2ccccc2)cnc1N)c1c(F)ccc(F)c1Cl (stereo not drawn) [Example I-538, 3-[1-(2-Chloro-3,6-difluoro-phenyl)-ethoxy]-5-phenethyloxy-pyridin-2-ylamine]",,IC50 [1]: 2.8 µM
"CC(Oc1cc(OCc2ccccn2)cnc1N)c1c(F)ccc(F)c1Cl (stereo not drawn) [Example I-539, 3-[1-(2-Chloro-3,6-difluoro-phenyl)-ethoxy]-5-(pyridin-2-ylmethoxy)-pyridin-2-ylamine]",,IC50 [1]: 3.2 µM
"CC(Oc1cc(OCc2ccncc2)cnc1N)c1c(F)ccc(F)c1Cl (stereo not drawn) [Example I-540, 3-[1-(2-Chloro-3,8-difluoro-phenyl)-ethoxy]-5-(pyridin-4-ylmethoxy)-pyridin-2-ylamine]",,IC50 [1]: 0.8 µM
"CC(Oc1cc(-c2ccc(C(=O)N3CCN(C)CC3)cc2)cnc1N)c1c(Cl)ccc(F)c1Cl (stereo not drawn) [Example I-541, (4-{6-Amino-5-[1-(2,6-dichloro-3-fluoro-phenyl)-ethoxy]-pyridin-3-yl}-phenyl)-(4-methyl-piperazin-1-yl)-methanone]",,IC50 [1]: 0.079 µM
"Nc1ncc(Br)cc1OCc1c(Cl)cccc1Cl [I(a), 5-Bromo-3-(2,6-dichloro-benzyloxy)-pyridin-2-ylamine]",5.3 µM,
"Nc1ncc(Br)cc1OCc1ccccc1 [I(b), 3-Benzyloxy-5-bromo-pyridin-2-ylamine]",> 20 µM,
Nc1ncc(Br)cc1OCc1c(F)cccc1F [I(c)],,"inhibition at 20 µM (at 20 μM, read-out: Met inhibition (printed in the Met IC50 column)): 40%"
"Nc1ncc(Br)cc1OCc1ccccc1Br [I(d), 5-Bromo-3-(2-bromo-benzyloxy)-pyridin-2-ylamine]",> 20 µM,
"Nc1ncc(Br)cc1OCc1c(F)cccc1Cl [I(e), 5-Bromo-3-(2-chloro-6-fluoro-benzyloxy)-pyridin-2-ylamine]",20 µM,
"Nc1ncc(Br)cc1OCc1c(F)ccc(F)c1Cl [I(l), 5-Bromo-3-(2-chloro-3.6-difluoro-benzyloxy)-pyridin-2-ylamine]",5.3 µM,
"Nc1ncc(Br)nc1OCc1c(Cl)cccc1Cl [II(a), 5-Bromo-3-(2,6-dichloro-benzyloxy)-pyrazin-2-ylamine]",> 20 µM,
"Nc1ncc(Br)nc1OCc1c(F)ccc(F)c1Cl [II(b), 5-Bromo-3-(2-chloro-3,6-difluoro-benzyloxy)-pyrazin-2-ylamine]",> 20 µM,
"CC(Oc1nc(Br)cnc1N)c1c(F)ccc(F)c1Cl (stereo not drawn) [II(c), 5-Bromo-3-[1-(2-chloro-3,6-difluoro-phenyl)-ethoxy]-pyrazin-2-ylamine]",1.81 µM and 2.67 µM,
"CC(C)C(Oc1nc(Br)cnc1N)c1c(F)ccc(F)c1Cl (stereo not drawn) [II(d), 5-Bromo-3-[1-(2-chloro-3,6-difluoro-phenyl)-2-methyl-propoxy]-pyrazin-2-ylamine]",18.1 µM,
"CC(Oc1nc(Br)cnc1N)c1c(Cl)ccc(F)c1Cl (stereo not drawn) [II(e), 5-Bromo-3-[1-(2,6-dichloro-3-fluoro-phenyl)-ethoxy]-pyrazin-2-ylamine]",0.24 µM and 0.66 µM and 1.3 µM,
"Nc1ncc(-c2ccc(O)cc2)nc1OCc1c(Cl)cccc1Cl [II-1, 4-[5-Amino-6-(2,6-dichloro-benzyloxy)-pyrazin-2-yl]-phenol]",1.35 µM,

Structure (SMILES),IC50,also measured
"Nc1ncc(-c2ccc(N3CCCS3(=O)=O)cc2)nc1OCc1c(Cl)cccc1Cl [II-2, 3-(2,6-Dichloro-benzyloxy)-5-[4-(1,1-dioxo-1λ^6-isothiazolidin-2-yl)-phenyl]-pyrazin-2-ylamine]",0.825 µM,
"Nc1ncc(-c2cccc(OCCN3CCOCC3)c2)nc1OCc1c(Cl)cccc1Cl [II-3, 3-(2,6-Dichloro-benzyloxy)-5-[3-(2-morpholin-4-yl-ethoxy)-phenyl]-pyrazin-2-ylamine]",0.74 µM,
"Nc1ncc(-c2ccc(OCCN3CCOCC3)cc2)nc1OCc1c(Cl)cccc1Cl [II-4, 3-(2,6-Dichloro-benzyloxy)-5-[4-(2-morpholin-4-yl-ethoxy)-phenyl]-pyrazin-2-ylamine]",1.25 µM,
"Nc1ccc(-c2cnc(N)c(OCc3c(Cl)cccc3Cl)n2)cc1 [II-5, 5-(4-Amino-phenyl)-3-(2,6-dichloro-benzyloxy)-pyrazin-2-ylamine]",0.94 µM,
"Nc1ncc(-c2ccc(C(=O)O)cc2)nc1OCc1c(Cl)cccc1Cl [II-6, 4-[5-amino-6-(2,6-dichloro-benzyloxy)-pyrazin-2-yl]-benzoic acid]",1.75 µM,
"Nc1ncc(-c2ccc(C(=O)N3CCC[C@@H]3CN3CCCC3)cc2)nc1OCc1c(Cl)cccc1Cl [II-7, {4-[5-Amino-6-(2,6-dichloro-benzyloxy)-pyrazin-2-yl]-phenyl)[(2R)-2-pyrrolidin-1-ylmethyl-pyrrolidin-1-yl]-methanone]",0.24 µM,
Nc1ncc(-c2ccc(C(=O)N3CCC(N4CCCC4)CC3)cc2)nc1OCc1c(Cl)cccc1Cl [II-8],0.56 µM,
"Nc1ncc(-c2ccc(NS(=O)(=O)CCN3CCOCC3)cc2)nc1OCc1c(F)ccc(F)c1Cl [II-9, 2-Morpholin-4-yl-ethanesulfonic acid {4-[5-amino-6-(2-chloro-3,6-difluoro-benzyloxy)-pyrazin-2-yl]-phenyl}-amide]",1.26 µM,
"Nc1ncc(-c2ccc(NS(=O)(=O)CCN3CCCCC3)cc2)nc1OCc1c(F)ccc(F)c1Cl [II-10, 2-Piperidin-1-yl-ethanesulfonic acid {4-[5-amino-6-(2-chloro-3,6-difluoro-benzyloxy)-pyrazin-2-yl]-phenyl}-amide]",1.2 µM,
"Nc1ncc(-c2ccc(NS(=O)(=O)CCN3CCC(O)CC3)cc2)nc1OCc1c(F)ccc(F)c1Cl [II-11, 2-(4-Hydroxy-piperidin-1-yl)-ethanesulfonic acid {4-[5-amino-6-(2-chloro-3,6-difluoro-benzyloxy)-pyrazin-2-yl]-phenyl}-amide]",0.65 µM,
"Nc1ncc(-c2ccc(NS(=O)(=O)CCN3CCCC3)cc2)nc1OCc1c(F)ccc(F)c1Cl [II-12, 2-Pyrrolidin-1-yl-ethanesulfonic acid {4-[5-amino-6-(2-chloro-3,6-difluoro-benzyloxy)-pyrazin-2-yl]-phenyl}-amide]",0.58 µM,
"Nc1ncc(-c2ccc(NS(=O)(=O)CCN3CC[C@@H](O)C3)cc2)nc1OCc1c(F)ccc(F)c1Cl [II-13, 2-[(3R)-3-Hydroxy-pyrrolidin-1-yl]-ethanesulfonic acid {4-[5-amino-6-(2-chloro-3,6-difluoro-benzyloxy)-pyrazin-2-yl]-phenyl}-amide]",1.59 µM,
"Nc1ncc(-c2ccc(NS(=O)(=O)CCN3CCC[C@H]3CO)cc2)nc1OCc1c(F)ccc(F)c1Cl [II-14, 2-[(2S)-2-Hydroxymethyl-pyrrolidin-1-yl]-ethanesulfonic acid {4-[5-amino-6-(2-chloro-3,6-difluoro-benzyloxy)-pyrazin-2-yl]-phenyl}-amide]",1.78 µM,
"Nc1ncc(-c2ccc(NS(=O)(=O)CCNCC3CC3)cc2)nc1OCc1c(F)ccc(F)c1Cl [II-15, 2-(Cyclopropylmethyl-amino)-ethanesulfonic acid {4-[5-amino-6-(2-chloro-3,6-difluoro-benzyloxy)-pyrazin-2-yl]-phenyl}-amide]",1.28 µM,
"CN(C)CCS(=O)(=O)Nc1ccc(-c2cnc(N)c(OCc3c(F)ccc(F)c3Cl)n2)cc1 [II-16, 2-Dimethylamino-ethanesulfonic acid {4-[5-amino-6-(2-chloro-3,6-difluoro-benzyloxy)-pyrazin-2-yl]-phenyl}-amide]",0.91 µM,
"CC(=O)N1CCN(CCS(=O)(=O)Nc2ccc(-c3cnc(N)c(OCc4c(F)ccc(F)c4Cl)n3)cc2)CC1 [II-18, 2-(4-Acetyl-piperazin-1-yl)-ethanesulfonic acid {4-[5-amino-6-(2-chloro-3,6-difluoro-benzyloxy)-pyrazin-2-yl]-phenyl}-amide]",1.5 µM,
"Nc1ncc(-c2ccc(NS(=O)(=O)CCNC3CC3)cc2)nc1OCc1c(F)ccc(F)c1Cl [II-20, 2-Cyclopropylamino-ethanesulfonic acid {4-[5-amino-6-(2-chloro-3,6-difluoro-benzyloxy)-pyrazin-2-yl]-phenyl}-amide]",1.29 µM,
"Nc1ncc(-c2cccc(NS(=O)(=O)CCN3CCC(O)CC3)c2)nc1OCc1c(F)ccc(F)c1Cl [II-22, 2-(4-Hydroxy-piperidin-1-yl)-ethanesulfonic acid {3-[5-amino-6-(2-chloro-3,6-difluoro-benzyloxy)-pyrazin-2-yl]-phenyl}-amide]",0.7 µM,
"CC(=O)N1CCN(CCS(=O)(=O)Nc2cccc(-c3cnc(N)c(OCc4c(F)ccc(F)c4Cl)n3)c2)CC1 [II-23, 2-(4-Acetyl-piperazin-1-yl)-ethanesulfonic acid {3-[5-amino-6-(2-chloro-3,6-difluoro-benzyloxy)-pyrazin-2-yl]-phenyl]-amide]",2.79 µM,
"Nc1ncc(-c2cccc(NS(=O)(=O)CCN3CCCCC3)c2)nc1OCc1c(F)ccc(F)c1Cl [II-24, 2-Piperidin-1-yl-ethanesulfonic acid {3-[5-amino-6-(2-chloro-3,6-difluoro-benzyloxy)-pyrazin-2-yl]-phenyl}-amide]",3.5 µM,
"CCN(CC)CCS(=O)(=O)Nc1cccc(-c2cnc(N)c(OCc3c(F)ccc(F)c3Cl)n2)c1 [II-25, 2-Diethylamino-ethanesulfonic acid {3-[5-amino-6-(2-chloro-3,6-difluoro-benzyloxy)-pyrazin-2-yl]-phenyl}-amide]",3.7 µM,
